Experimental data from patent US10800783B2, “CDK2/4/6 inhibitors” (Pfizer Inc., priority 2016, dated 2020).
Where two headings read alike, the source gives them in different places.

Experiments:
[1] = biological target: T1, CDK6/Cyclin D1 (Homo sapiens (Human), UniProt Q00534); conditions: read-out: CDK6_Ki; non-phosphorylated CDK6/Cyclin D1, 2 mM ATP
[2] = biological target: T1, CDK6/Cyclin D1; assay: biochemical
[3] = system: OVCAR3 mouse tumor xenograft; assay: Ovcar3 tumor model (mouse xenograft); type: in vivo; conditions: NSG mice; 10 mpk PO QD, 50 mpk PO QD and 50 mpk PO BID, 14 days
Experimental: Ovcar3 tumor cell line, purchased from ATCC (ATCC HTB-161™) was cultured in RPMI1640 (1×) media (Gibco™ cat #11875-093) with 10% FBS (Gibco™ cat #26140-079). To establish a Ovcar3 xenograft model, 5×10^6 cells per mouse was implanted subcutaneously into right hind flank NSG mice (#5557-NOD.cg-PrkdcJackson Lab). Cells were suspended in 50% matrigel (Cultrex Basement Membrane Extract (BME), Trevigen's Basement Membrane Matrix) and 50% RPMI1640 (1×) media (Gibco™ cat #11875-093) serum free media prior to implantation.
Animals were randomized 39 days after cells implantation with each group consisted of 4 mice. Treatment began when tumors reached 100 mm^3-190 mm^3 in size. Test compounds were prepared in 40% Captisol and dosed PO at 10 and 50 mg/kg QD or at 50 mg/kg BID as a suspension for 14 days. Animals were taken down at designated time. Mice receiving no drugs were given vehicle QD or BID for 14 days. Tumor volumes were measured once prior to randomization with an electric caliper, with tumor volumes were calculated using Length×Width×Width/2 formulation. Tumor volumes were measured twice a week with an electric caliper, with tumor volumes calculated using Length×Width×Width/2 formula. Animal weights were recorded twice weekly.

[4] = system: HCC1806 mouse tumor xenograft; assay: HCC1806 tumor model (mouse xenograft); type: in vivo; conditions: NU/NU female mice; 30, 50 and 75 mpk PO BID, 14 days
Experimental: • Source: HCC1806 (# CRL 2335, ATCC, Manassas, Va.)
The HCC1806 tumor cell line was cultured in RPMI1640 media supplemented with 10% Fetal Bovine Serum (FBS). To establish a HCC1806 xenograft model, 5×10^6 cells per mouse were implanted subcutaneously into right hind flank NU/NU female mice. Cells were suspended in 50% Cultrex Basement Membrane Extract and 50% RPMI 1640 media serum free media prior to implantation.
Animals were randomized 7 days after cells implantation with each group consisting of 13 mice. Treatment began when tumors reached 100 mm^3 to 170 mm^3 in size on Day 7. Test compounds were prepared in 0.1% Tween, 0.5% Methyl cellulose in water and dosed PO at 30, 50, and 75 mg/kg as a suspension BID for 14 days. Mice receiving no drugs were given vehicle BID for 14 days. Tumor volumes were measured twice a week with an electric caliper, with tumor volumes calculated using Length×Width×Width/2 formula. Animal weights were recorded twice weekly.

[5] = biological target: CDK2/Cyclin E1 (Homo sapiens (Human), UniProt P24941); assay: biochemical
Experimental: The assay was initiated with the addition of ATP, following a fifteen minutes pre-incubation of enzyme and inhibitor at room temperature in the reaction mixture. The reaction was stopped after 45 minutes at room temperature by the addition of 50 μL of 80 mM EDTA, pH 7.5.

T1 sequence (Q00534 whole entry): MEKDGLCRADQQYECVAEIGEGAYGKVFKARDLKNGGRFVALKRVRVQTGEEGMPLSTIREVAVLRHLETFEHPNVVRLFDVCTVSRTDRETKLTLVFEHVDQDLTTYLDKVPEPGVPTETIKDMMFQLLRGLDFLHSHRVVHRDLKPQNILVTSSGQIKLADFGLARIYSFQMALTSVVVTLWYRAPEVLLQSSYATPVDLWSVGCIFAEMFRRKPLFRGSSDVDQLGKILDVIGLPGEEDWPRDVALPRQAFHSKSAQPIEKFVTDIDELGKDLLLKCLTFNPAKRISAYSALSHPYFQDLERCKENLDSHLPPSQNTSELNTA
T1 sequence (P24385 whole entry partner): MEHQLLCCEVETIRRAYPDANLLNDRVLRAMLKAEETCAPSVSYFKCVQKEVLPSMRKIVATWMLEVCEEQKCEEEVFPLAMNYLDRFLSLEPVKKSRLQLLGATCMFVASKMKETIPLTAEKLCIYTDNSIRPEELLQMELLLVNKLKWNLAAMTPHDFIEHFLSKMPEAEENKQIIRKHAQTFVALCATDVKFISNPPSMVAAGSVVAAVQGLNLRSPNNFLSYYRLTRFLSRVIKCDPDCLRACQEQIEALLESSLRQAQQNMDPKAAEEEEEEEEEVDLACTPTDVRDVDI

Row | Compound | Ki [2] | other results
1 | C[C@@]1(O)CCC[C@H]1n1c(=O)ccc2cnc(NC3CCN(S(=O)(=O)C4CCS(=O)(=O)C4)CC3)nc21 (single isomer, unassigned) [Example 71] |  | Ki [1]: 1.55 nM
2 | C[C@@]1(O)CCC[C@H]1n1c(=O)ccc2cnc(NC3CCN(S(=O)(=O)NC[C@@H]4CCCO4)CC3)nc21 (stereo in doubt) [Example 62] | 5.69 nM | 
3 | C[C@]1(O)CCC[C@@H]1n1c(=O)ccc2cnc(NC3CCN(S(=O)(=O)NC[C@@H]4CCCO4)CC3)nc21 (stereo in doubt) [Example 63] | 16.5 nM | 
4 | Cc1cc2cnc(NC3CCN(S(=O)(=O)NC[C@@H]4CCCO4)CC3)nc2n([C@H]2CCC[C@]2(C)O)c1=O (stereo in doubt) [Example 101] | 23.5 nM | 
5 | Cc1cc2cnc(NC3CCN(S(=O)(=O)NC[C@H]4CCCO4)CC3)nc2n([C@@H]2CCC[C@@]2(C)O)c1=O (stereo in doubt) [Example 102] | 0.8 nM | 
6 | C[C@@]1(O)CCC[C@H]1n1c(=O)ccc2cnc(NC3CCN(S(C)(=O)=O)CC3)nc21 [Example 2, 8-[(1R,2R)-2-hydroxy-2-methylcyclopentyl]-2-{[1-(methylsulfonyl)piperidin-4-yl]amino}pyrido[2,3-d]pyrimidin-7(8H)-one] |  | inhibition of tumor growth (mm^3) [3]: dose dependent inhibition of tumor growth; inhibition of tumor growth (mm^3) [4]: dose dependent inhibition of tumor growth
7 | CNS(=O)(=O)N1CCC(Nc2ncc3ccc(=O)n([C@@H]4CCC[C@H]4O)c3n2)CC1 [Example 55] |  | Ki [5]: 4.66 nM

Continued, in another order:

Row | Ki [2] | Compound | other results
8 | 4.69 nM | C[C@@]1(O)CCC[C@H]1n1c(=O)ccc2cnc(NC3CCN(S(=O)(=O)NC[C@H]4CCCO4)CC3)nc21 (stereo in doubt) [Example 64] | 
9 | 25.6 nM | C[C@]1(O)CCC[C@@H]1n1c(=O)ccc2cnc(NC3CCN(S(=O)(=O)NC[C@H]4CCCO4)CC3)nc21 (stereo in doubt) [Example 65] | 
10 | 1.07 nM | Cc1cc2cnc(NC3CCN(S(=O)(=O)NC[C@@H]4CCCO4)CC3)nc2n([C@@H]2CCC[C@@]2(C)O)c1=O (stereo in doubt) [Example 100] | 
11 | 19.6 nM | Cc1cc2cnc(NC3CCN(S(=O)(=O)NC[C@H]4CCCO4)CC3)nc2n([C@H]2CCC[C@]2(C)O)c1=O (stereo in doubt) [Example 103] | 
